Test results from paper PMC6934184, “Selective DNA-PKcs inhibition extends the therapeutic index of localized radiotherapy and chemotherapy” (The Journal of Clinical Investigation, 2019).

Molecular target: T1, PRKCB1 (PKC beta I) (Homo sapiens, UniProt P05771)
T1 construct: purchased Thermo Fisher Scientific (Life Technologies) SelectScreen
Test: SelectScreen Z'LYTE
Assay type: biochemical
Procedure, shortened: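 NU5455 was profiled across the SelectScreen Broad panel of kinase activity and binding assays. Z'LYTE reactions such as CSF1R ran at apparent Km ATP, while the Adapta CAMK1 assay used ATP listed as 10. Values are given as percent.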

T1 sequence (P05771 whole entry): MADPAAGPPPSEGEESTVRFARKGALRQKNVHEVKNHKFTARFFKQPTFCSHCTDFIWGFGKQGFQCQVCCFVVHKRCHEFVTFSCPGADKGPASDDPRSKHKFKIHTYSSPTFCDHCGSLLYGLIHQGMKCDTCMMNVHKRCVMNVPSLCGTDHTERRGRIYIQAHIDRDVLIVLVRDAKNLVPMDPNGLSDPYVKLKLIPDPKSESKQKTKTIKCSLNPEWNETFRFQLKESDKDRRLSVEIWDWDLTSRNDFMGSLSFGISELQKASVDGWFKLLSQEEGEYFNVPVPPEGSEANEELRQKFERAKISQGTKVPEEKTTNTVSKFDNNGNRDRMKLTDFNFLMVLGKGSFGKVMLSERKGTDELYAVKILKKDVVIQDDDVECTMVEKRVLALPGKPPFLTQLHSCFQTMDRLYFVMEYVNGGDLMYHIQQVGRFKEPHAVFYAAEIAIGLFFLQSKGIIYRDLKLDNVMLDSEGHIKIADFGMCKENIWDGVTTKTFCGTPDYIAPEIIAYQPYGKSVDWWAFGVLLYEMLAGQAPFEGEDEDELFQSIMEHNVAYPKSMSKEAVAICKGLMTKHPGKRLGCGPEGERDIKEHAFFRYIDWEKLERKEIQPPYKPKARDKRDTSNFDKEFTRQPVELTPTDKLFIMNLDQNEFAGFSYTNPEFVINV

**Q.** CN(C(=O)CN1CCOCC1)c1ccc2sc3c(-c4cccc5c(=O)cc(N6CC7CCC(C6)O7)oc45)cccc3c2c1 [NU5455] was tested. Which inhibition at 1 µM did it give?
**A.** -0.7%
